One compound from patent publication US8992990B2, “Magnetic nanocomposite for inhibiting/treating cancer and method for fabricating the same” (Chang Gung University, priority 2009, dated 2015) can be followed below.

The subject of data set [1] is human glioma cells (U87). As to the kind of experiment: In vitro toxicity / cell growth inhibition, XTT assay, U87 cells. The settings on record: 100 μM, 72 hours later. The format is cell-based. A general note: Tetrazolium assays rely on reduction of a dye to a coloured formazan, in cell work by metabolically active cells.
Experimental: Place 150 μL of a mixture liquid containing 10000 human glioma cells (U87) into every well of a 96-well culture plate. Place the culture plates in a humidified incubator at a temperature of 37 C.° and with 5% CO2 to enable adherent growth of the cells. […] Once cell counting begins, remove RPMI1640 and add 120 μL of an XTT reaction liquid (2,3-Bis(2-methoxy-4-nitro-5-sulfophenyl)-2H-tetrazolium-5-carboxanili de inner salt).
The subject of data set [2] is mouse glioma cells (C6). Briefly: In vitro toxicity / cell growth inhibition, XTT assay, C6 cells. In kind it is cell-based. Conditions: 100 μM, 12 hours later.
Experimental: Place 150 μL of a mixture liquid containing 10000 mouse glioma cells (C6) into every well of a 96-well culture plate. Place the culture plates in a humidified incubator at a temperature of 37 C.° and with 5% CO2 to enable adherent growth of the cells. […] Once cell counting begins, remove RPMI1640 and add 120 μL of an XTT reaction liquid (2,3-Bis(2-methoxy-4-nitro-5-sulfophenyl)-2H-tetrazolium-5-carboxanili de inner salt).
A short description of data set [3]: Storage stability, residual activity by Bratton-Marshall assay. From the text: Use the Bratton-Marshall assay to detect the residual activities after the storages of 1-30 days for comparing the storage stabilities. Refer to FIGS. 5(a)-5(c).
A short description of data set [4]: Solubility in water.

As usually defined, the half-life is the time needed for the level to fall by half in the phase considered. Low readings indicate rapid decline, high ones slow decline.

As for `O=NN(CCCl)C(=O)NCCCl` [BCNU, 1,3-bis(2-chloroethyl)-1-nitrosourea], the “U87 cell growth-inhibition ratio” value in data set [1] worked out at 49%. For the same compound, the “C6 cell growth-inhibition ratio” value in data set [2] stood at 53%. Further, the half-life in data set [3] (storing at 4° C.) was 18000 min; in data set [3] (storing at 25° C.), 1320 min; in data set [3] (storing at 37° C.) it was 720 min. The remains after storage in data set [3] (stored for 30 days) came to 22%. Besides, the solubility in water result in data set [4] is given as “low solubility in water”.
